pEC50: −log10 of the molar value.
Each molecule was assayed against Histamine H1 receptor (Cavia porcellus, UniProt P31389) (assay: H1-Histamine receptor agonism on Guinea pig aorta was evaluated (SEM 0.03-0.18)).
Chain of Histamine H1 receptor (P31389 whole entry): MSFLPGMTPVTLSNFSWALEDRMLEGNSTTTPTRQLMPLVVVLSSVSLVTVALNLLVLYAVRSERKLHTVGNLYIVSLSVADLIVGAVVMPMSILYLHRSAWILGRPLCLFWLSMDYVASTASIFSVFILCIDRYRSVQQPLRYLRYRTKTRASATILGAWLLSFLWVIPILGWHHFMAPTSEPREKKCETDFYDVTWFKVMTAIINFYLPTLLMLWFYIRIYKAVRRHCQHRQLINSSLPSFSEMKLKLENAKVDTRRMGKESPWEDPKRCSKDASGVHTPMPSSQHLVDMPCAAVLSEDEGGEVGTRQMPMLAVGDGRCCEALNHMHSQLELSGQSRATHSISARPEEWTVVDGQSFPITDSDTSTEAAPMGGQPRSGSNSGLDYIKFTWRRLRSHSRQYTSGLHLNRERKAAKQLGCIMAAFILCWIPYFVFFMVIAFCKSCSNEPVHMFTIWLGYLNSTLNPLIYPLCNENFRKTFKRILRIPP
`NCCc1cnc(-c2cccc(C(F)(F)F)c2)[nH]1` showed a pEC50 of 5.89.
`NCCc1c[nH]c(-c2ccccc2)n1` showed a pEC50 of 5.20.
Molecule `NCCc1c[nH]c(-c2cccs2)n1` has a pEC50 of 5.00.
`NCCc1c[nH]c(Cc2cccs2)n1` showed a pEC50 of 3.83.
`NCCc1c[nH]c(-c2ccc[nH]2)n1` showed a pEC50 of 4.99.
`NCCc1c[nH]c(Cc2ccsc2)n1` was tested, and the pEC50 was 3.89.
Molecule `NCCc1c[nH]c(-c2csc(Br)c2)n1` has a pEC50 of 4.94.
For `NCCc1c[nH]c(-c2ccco2)n1`, the pEC50 was 5.27.
`NCCc1c[nH]c(-c2cccc(I)c2)n1` was tested, and the pEC50 was 5.59.
`NCCc1c[nH]c(-c2ccsc2)n1` gave a pEC50 of 5.21.
For `NCCc1c[nH]c(Cc2ccccc2Cl)n1`, the pEC50 was 3.24.
`NCCc1c[nH]c(Cc2cccc(Cl)c2)n1` gave a pEC50 of 3.54.
`NCCc1nccs1` [2-(2-aminoethyl)thiazole] was tested, and the pEC50 was 5.17.

Reference: BindingDB's records for doi:10.1021/jm00008a007 (1995)
